Assays:
[1] = target: T1, ATP-dependent translocase ABCB1 (Homo sapiens, UniProt P08183); assay: Inhibition of P-glycoprotein (unknown origin) expressed in MDCK cells assessed as reduction of calcein-AM transport after 30 mins by fluorescence assay; assay type: cell-based
[2] = target: T1, ATP-dependent translocase ABCB1; assay: Activation of ATPase activity of MDR1 (unknown origin) expressed in MDCK cells assessed as reduction of reduction of ATP level at 100 uM after 2 hrs by luminescence/ATPlite assay; assay type: cell-based; design: scale not given: the % may be the effect or the level left
[3] = Efflux ratio of permeability from basolateral to apical side over apical to basolateral side in human Caco2 cells at 100 uM after 30 mins by UV spectroscopy; assay type: ADME, cell-based; conditions: Caco-2
[4] = target: Multidrug resistance-associated protein 1 (Homo sapiens, UniProt P33527); assay: Modulation of MRP1 (unknown origin) expressed in MDCK cells at 100 uM; assay type: cell-based
Multidrug resistance-associated protein 1, sequence (P33527 whole entry): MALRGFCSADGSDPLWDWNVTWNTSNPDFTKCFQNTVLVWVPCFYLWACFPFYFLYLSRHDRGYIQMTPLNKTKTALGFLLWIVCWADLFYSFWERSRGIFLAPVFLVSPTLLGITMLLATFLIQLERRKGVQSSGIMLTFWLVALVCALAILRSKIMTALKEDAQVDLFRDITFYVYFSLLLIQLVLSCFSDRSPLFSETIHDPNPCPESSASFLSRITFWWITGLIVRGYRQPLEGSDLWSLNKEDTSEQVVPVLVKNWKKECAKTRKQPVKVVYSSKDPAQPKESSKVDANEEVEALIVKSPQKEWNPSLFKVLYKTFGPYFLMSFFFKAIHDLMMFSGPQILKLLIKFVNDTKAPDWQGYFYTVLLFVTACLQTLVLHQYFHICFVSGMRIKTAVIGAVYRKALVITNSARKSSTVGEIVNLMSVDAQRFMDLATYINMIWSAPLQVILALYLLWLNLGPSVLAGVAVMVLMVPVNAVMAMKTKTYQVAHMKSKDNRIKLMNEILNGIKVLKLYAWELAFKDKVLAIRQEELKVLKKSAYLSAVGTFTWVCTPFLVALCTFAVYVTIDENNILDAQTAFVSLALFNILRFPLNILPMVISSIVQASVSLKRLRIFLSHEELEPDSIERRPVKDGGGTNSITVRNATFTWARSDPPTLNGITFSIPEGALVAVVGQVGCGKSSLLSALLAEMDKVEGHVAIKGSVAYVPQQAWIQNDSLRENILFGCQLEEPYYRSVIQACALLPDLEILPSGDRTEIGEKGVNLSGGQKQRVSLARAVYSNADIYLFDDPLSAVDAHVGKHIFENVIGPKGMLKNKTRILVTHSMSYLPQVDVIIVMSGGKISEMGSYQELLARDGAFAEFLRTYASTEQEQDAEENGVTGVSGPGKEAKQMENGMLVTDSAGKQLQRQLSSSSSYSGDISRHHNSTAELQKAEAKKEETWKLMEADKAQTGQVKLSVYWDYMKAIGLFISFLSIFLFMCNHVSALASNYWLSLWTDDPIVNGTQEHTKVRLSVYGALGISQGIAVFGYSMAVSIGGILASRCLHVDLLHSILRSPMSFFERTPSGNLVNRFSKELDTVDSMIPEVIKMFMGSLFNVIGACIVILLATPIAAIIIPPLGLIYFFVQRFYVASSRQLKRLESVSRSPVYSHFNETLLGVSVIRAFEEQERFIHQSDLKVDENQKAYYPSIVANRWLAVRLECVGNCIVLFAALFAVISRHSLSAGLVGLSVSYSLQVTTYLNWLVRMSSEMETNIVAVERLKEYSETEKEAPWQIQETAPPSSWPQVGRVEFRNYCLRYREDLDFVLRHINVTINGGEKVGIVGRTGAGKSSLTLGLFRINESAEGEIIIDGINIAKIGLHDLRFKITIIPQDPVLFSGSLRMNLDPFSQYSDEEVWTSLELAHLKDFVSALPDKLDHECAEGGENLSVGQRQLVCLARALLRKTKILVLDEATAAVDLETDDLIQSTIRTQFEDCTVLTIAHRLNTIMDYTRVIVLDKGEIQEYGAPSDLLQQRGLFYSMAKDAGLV

MDCK = assay: Cytotoxicity against MDR1 expressing MDCK cells assessed as cell viability at 1 uM after 24 hrs by MTT assay; assay type: ADME, cell-based, Canis lupus familiaris; conditions: dog
[5] = Cytotoxicity against MDR1 expressing MDCK cells assessed as cell viability at 1 uM after 48 hrs by MTT assay; assay type: ADME, cell-based, Canis lupus familiaris; conditions: dog, read-out: Activity
[6] = Cytotoxicity against MDR1 expressing MDCK cells assessed as cell viability at 1 uM after 48 hrs by MTT assay in presence of MC18 P-gp inhibitor; assay type: ADME, cell-based, Canis lupus familiaris; conditions: dog, with MC18 (P-gp inhibitor), concentration not stated, read-out: Activity

T1 sequence (P08183 whole entry): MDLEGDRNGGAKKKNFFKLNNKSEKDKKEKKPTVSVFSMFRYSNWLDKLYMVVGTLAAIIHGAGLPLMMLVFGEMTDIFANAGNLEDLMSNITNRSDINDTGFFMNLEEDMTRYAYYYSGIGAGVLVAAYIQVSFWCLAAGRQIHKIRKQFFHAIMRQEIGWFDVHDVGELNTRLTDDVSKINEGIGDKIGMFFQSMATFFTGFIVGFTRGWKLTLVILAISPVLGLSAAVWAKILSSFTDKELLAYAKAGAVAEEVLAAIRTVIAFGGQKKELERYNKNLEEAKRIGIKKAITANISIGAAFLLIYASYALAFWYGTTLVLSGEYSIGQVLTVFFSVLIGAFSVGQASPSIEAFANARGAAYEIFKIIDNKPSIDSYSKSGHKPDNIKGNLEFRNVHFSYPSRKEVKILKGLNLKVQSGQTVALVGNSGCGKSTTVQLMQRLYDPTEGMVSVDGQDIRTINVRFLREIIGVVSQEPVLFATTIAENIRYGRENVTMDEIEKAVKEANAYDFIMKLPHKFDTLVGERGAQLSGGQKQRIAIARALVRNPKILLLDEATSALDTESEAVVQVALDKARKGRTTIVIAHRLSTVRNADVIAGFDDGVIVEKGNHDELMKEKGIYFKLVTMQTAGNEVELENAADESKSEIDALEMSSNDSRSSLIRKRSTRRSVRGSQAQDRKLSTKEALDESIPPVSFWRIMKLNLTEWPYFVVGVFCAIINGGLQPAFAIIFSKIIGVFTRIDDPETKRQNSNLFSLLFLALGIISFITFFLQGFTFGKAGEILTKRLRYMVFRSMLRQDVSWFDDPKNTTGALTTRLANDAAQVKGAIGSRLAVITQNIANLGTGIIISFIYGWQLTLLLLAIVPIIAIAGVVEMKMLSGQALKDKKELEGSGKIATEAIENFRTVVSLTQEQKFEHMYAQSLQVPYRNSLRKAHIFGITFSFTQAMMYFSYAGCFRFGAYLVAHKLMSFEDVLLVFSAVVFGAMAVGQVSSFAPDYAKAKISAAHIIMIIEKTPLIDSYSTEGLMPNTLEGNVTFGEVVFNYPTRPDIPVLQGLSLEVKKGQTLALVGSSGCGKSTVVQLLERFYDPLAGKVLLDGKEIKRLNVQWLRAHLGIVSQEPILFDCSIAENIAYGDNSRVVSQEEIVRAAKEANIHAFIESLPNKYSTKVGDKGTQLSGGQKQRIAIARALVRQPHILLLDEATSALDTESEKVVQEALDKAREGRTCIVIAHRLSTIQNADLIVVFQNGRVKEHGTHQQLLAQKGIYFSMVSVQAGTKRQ

SMILES | EC50 [1] [µM] | Activity [2] | efflux ratio at 0.5 h, 100 µM [3] | Activity [4] | Activity (MDCK) | viability at 48 h, 1 µM [5] [%] | viability at 48 h, 1 µM [6] [%]
COc1cccc(CCc2ccccc2OCc2cc(OC)c(OC)c(OC)c2)c1 | 3.1 | Not Active | 3.14 | Not Active |  |  | 
COc1cc2c(cc1OC)CN(CCc1ccc(NC(=O)c3cc(OC)c(OC)cc3NC(=O)c3cnc4ccccc4c3)cc1)CC2 [TARIQUIDAR] |  | 30% | 22 |  |  |  | 
COc1ccc(CCc2ccccc2OCc2ccc(OC)c(OC)c2)cc1OC | 2.1 | Not Active | 2.77 | Not Active |  |  | 
COc1cccc(CCc2ccccc2OCc2cc(OC)c(OC)c(OC)c2)c1OC | 0.3 | Active | 3.23 | Not Active |  |  | 
COc1cccc(COc2ccccc2CCc2cc(OC)c(OC)c(OC)c2)c1OC | 3.2 | Active | 3.45 | Not Active |  |  | 
COc1cccc(CCc2ccccc2OCc2cccs2)c1 | > 100 | Active |  | Not Active |  |  | 
COc1cccc(CCc2ccccc2NCc2ccncc2)c1 | 11.5 | Active | 3 | Not Active |  |  | 
COc1cccc(CCc2ccccc2NC(=O)c2cccc(OC)c2)c1 | 10.9 | Active | 4.1 | Not Active |  |  | 
COc1cc(CCc2ccccc2OCc2cc(OC)c(OC)c(OC)c2)cc(OC)c1OC | 0.0071 | Active | 3.96 | Not Active | Non-toxic | 40 | 63
Clc1ccc(COc2ccccc2CCc2ccccc2)c(Cl)c1 | > 100 |  |  | Not Active |  |  | 
COc1cc(COc2ccccc2CCc2cc(OC)c(OC)c(OC)c2)cc(OC)c1 | 1.3 | Not Active |  | Not Active |  |  | 
COc1cccc(CCc2ccccc2OCc2ccc3c(c2)OCO3)c1 | > 100 | Active |  | Not Active |  |  | 
COc1cccc(CCc2ccccc2OCc2ncccn2)c1 | 32.5 | Active | 2.91 | Not Active |  |  | 
COc1ccc(COc2ccccc2CCc2cc(OC)c(OC)c(OC)c2)cc1OC | 0.9 | Active | 3.8 | Not Active |  |  | 
COc1cccc(CCc2ccccc2NC(=O)c2cccnc2)c1 | 43.7 | Active |  | Not Active |  |  | 

From ChEMBL document CHEMBL3232943, “SAR study on arylmethyloxyphenyl scaffold: looking for a P-gp nanomolar affinity” (Eur J Med Chem, 2014)
